For 20 molecules, IC50 results are on record in the Kinase Knowledgebase extract (Sharma et al. 2016).

Assay [1] addresses PIK3CD (Human) (UniProt O00329). The experiment in a line: Assessment of PIK3CD Kinase Activity in RAJI Cells.
Assay [2] addresses PIK3CB (Human) (UniProt P42338). The experiment in a line: Assessment of PIK3CB Kinase Activity.
For assay [3], the target named is PIK3CD (Human) (UniProt O00329). Put plainly: Assessment of PIK3CD Kinase Activity.
In assay [4] the target is PIK3CA (human) (UniProt P42336). The experiment in a line: Assessment of PIK3CA Kinase Activity.
Chain of PIK3CA (human) (P42336 whole entry, looked up): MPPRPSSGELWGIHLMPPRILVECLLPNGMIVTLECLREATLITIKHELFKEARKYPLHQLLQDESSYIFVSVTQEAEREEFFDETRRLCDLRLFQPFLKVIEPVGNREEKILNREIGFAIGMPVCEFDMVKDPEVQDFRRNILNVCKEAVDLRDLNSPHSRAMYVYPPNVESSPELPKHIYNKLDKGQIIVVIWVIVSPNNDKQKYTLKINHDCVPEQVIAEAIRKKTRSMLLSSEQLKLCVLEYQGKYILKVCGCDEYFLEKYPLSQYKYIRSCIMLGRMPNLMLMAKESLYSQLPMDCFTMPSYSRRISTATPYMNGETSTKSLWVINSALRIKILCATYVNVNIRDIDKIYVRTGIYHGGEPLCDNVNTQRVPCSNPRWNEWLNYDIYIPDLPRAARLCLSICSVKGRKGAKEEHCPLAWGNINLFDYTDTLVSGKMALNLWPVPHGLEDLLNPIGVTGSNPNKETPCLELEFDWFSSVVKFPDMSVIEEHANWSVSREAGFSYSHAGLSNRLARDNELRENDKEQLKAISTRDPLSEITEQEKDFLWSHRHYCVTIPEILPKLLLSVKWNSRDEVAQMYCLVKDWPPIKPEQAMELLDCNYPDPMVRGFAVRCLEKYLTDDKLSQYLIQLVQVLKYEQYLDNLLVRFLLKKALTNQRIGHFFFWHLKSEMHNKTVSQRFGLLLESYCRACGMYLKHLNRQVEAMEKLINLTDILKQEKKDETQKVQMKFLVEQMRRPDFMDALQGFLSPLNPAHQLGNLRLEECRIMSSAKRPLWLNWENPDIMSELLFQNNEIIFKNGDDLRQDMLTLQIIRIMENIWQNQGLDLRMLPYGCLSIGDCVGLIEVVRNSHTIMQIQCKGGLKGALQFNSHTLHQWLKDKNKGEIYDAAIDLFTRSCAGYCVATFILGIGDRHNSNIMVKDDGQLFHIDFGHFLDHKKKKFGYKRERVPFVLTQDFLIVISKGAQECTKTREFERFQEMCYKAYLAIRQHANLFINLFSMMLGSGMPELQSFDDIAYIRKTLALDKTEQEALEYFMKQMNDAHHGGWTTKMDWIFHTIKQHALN
The target of a further assay is PIK3CG (human) (UniProt P48736). Put plainly: Assessment of PIK3CG Kinase Activity.
Chain of PIK3CG (human) (P48736 whole entry, looked up): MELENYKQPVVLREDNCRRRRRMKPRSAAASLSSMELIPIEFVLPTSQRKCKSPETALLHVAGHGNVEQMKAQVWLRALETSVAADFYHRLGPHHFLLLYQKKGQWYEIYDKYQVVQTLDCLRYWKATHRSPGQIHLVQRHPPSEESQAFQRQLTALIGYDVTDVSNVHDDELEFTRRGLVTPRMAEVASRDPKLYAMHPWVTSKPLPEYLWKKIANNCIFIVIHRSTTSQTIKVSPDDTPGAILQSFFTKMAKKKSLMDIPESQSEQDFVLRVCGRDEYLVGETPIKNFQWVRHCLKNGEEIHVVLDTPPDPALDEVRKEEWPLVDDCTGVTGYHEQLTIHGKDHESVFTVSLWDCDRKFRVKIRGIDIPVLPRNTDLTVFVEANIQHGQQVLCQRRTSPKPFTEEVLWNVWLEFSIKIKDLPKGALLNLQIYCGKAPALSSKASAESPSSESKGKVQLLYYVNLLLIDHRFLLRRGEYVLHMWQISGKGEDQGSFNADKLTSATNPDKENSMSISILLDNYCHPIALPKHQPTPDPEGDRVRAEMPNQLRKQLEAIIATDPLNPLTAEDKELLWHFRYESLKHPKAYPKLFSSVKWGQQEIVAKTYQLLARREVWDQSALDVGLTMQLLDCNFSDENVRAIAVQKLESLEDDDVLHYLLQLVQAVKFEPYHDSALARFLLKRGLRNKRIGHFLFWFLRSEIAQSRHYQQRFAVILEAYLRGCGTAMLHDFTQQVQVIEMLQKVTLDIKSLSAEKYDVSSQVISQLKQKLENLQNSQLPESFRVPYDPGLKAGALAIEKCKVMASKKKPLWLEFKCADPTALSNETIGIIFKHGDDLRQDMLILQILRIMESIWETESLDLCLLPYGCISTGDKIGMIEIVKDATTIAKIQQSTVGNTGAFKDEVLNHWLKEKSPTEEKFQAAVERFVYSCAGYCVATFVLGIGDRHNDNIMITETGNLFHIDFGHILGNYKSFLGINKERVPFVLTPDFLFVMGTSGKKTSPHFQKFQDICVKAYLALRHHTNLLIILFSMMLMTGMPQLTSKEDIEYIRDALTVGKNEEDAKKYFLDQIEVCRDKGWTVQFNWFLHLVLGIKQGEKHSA
The target in assay [5] is PIK3CB (Human) (UniProt P42338). The experiment in a line: Assessment of PIK3CB Kinase Activity in 786-O Cells.
Chain of PIK3CB (Human) (P42338 whole entry, looked up): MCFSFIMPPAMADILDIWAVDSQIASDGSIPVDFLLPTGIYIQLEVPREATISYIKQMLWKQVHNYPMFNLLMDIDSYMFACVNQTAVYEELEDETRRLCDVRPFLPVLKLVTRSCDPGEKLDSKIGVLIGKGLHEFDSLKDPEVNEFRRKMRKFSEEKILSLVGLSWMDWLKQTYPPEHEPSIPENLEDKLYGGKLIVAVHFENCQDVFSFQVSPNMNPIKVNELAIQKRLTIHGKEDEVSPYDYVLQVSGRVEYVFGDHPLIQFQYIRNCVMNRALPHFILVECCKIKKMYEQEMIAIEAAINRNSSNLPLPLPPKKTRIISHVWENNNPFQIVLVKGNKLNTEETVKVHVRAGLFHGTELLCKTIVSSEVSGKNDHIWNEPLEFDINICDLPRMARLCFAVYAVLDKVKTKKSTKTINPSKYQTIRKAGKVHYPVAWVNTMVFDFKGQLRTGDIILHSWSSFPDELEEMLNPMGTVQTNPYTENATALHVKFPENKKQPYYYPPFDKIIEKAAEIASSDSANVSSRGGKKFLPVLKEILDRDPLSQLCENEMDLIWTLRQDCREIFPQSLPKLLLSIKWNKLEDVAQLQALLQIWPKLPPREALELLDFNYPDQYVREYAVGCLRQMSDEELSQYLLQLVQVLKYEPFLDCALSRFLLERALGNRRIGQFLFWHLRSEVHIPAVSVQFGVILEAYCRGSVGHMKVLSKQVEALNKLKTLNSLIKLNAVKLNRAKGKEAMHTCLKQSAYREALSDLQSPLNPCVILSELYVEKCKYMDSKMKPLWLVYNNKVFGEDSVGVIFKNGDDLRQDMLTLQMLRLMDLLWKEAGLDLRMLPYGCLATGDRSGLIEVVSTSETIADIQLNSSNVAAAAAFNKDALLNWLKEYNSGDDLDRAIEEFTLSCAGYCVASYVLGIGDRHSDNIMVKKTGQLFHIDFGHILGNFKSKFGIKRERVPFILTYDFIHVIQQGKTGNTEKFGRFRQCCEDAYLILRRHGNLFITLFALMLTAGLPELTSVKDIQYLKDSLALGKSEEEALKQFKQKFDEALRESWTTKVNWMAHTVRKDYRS
The target in assay [6] is PIK3CA (human) (UniProt P42336). Put plainly: Assessment of PIK3CA Kinase Activity in SKOV-3 Cells.

Bounds are passed on as bounds.

Chain of PIK3CD (Human) (O00329 whole entry, looked up): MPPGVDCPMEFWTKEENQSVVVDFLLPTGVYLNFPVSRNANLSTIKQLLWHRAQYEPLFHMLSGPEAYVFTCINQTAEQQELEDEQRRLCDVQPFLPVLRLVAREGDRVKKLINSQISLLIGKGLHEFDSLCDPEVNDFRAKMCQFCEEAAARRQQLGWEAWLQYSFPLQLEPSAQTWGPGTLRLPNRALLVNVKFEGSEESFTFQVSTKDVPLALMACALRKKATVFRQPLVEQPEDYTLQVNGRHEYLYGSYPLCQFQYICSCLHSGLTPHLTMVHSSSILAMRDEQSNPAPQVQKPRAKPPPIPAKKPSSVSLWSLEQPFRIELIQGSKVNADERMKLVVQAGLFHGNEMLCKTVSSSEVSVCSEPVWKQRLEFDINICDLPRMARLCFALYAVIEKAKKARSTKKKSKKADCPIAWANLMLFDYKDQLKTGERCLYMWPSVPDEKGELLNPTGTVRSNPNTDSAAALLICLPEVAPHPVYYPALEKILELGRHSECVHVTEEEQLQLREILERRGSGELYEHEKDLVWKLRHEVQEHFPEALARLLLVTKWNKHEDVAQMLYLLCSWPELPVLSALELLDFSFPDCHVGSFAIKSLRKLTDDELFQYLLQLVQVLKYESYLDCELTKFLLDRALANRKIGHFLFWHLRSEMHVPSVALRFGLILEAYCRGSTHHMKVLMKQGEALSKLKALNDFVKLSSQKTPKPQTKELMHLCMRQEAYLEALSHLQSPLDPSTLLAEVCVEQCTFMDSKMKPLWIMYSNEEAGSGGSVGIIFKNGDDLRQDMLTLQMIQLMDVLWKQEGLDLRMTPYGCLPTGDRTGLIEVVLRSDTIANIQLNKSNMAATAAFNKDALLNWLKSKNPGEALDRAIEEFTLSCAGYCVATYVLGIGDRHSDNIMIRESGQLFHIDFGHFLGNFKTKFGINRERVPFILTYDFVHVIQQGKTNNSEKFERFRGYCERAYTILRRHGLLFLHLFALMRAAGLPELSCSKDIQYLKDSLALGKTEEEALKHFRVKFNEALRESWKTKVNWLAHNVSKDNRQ

In the case of `C[C@H](Nc1ncnc(N)c1C#N)c1cc2cccc(Cl)c2c(=O)n1-c1ccon1`, the IC50 on PIK3CD (Human) [1] was below 100 nM; against PIK3CB (Human) [2], above 10000 nM; against PIK3CD (Human) [3], 100 to 1000 nM; at PIK3CA (human) [4] it was above 10000 nM; on PIK3CG (human), 100 to 1000 nM.
With `COc1ncc(-c2cccc3cc([C@H](C)Nc4ncnc(N)c4C#N)n(-c4ccccc4)c(=O)c23)cn1`, the IC50 at PIK3CD (Human) [1] is below 100 nM; against PIK3CB (Human) [2], above 10000 nM; against PIK3CD (Human) [3] it was below 100 nM; on PIK3CA (human) [4], above 10000 nM; against PIK3CG (human), 100 to 1000 nM.
For `C[C@H](Nc1nc(N)ncc1-c1cn[nH]c1)c1cc2cccc(Cl)c2c(=O)n1-c1ccccc1`, the IC50 against PIK3CD (Human) [1] was below 100 nM; on PIK3CB (Human) [2] it was above 10000 nM; against PIK3CD (Human) [3], 100 to 1000 nM; at PIK3CA (human) [4], above 10000 nM; against PIK3CG (human), below 100 nM.
With `COc1cc(-c2cccc3cc(CNc4nc(N)ncc4C#N)n(-c4ccccc4)c(=O)c23)ccn1`, the IC50 at PIK3CD (Human) [1] is below 100 nM; against PIK3CB (Human) [2], above 10000 nM; against PIK3CD (Human) [3] it was below 100 nM; against PIK3CA (human) [4] it was above 10000 nM; at PIK3CG (human) it was 100 to 1000 nM.
In the case of `C[C@H](Nc1nc(N)ncc1-c1cccc(NS(=O)(=O)N(C)C)c1)c1cc2cccc(Cl)c2c(=O)n1-c1ccccc1`, the IC50 against PIK3CD (Human) [1] was below 100 nM; against PIK3CB (Human) [2], 100 to 1000 nM; at PIK3CD (Human) [3], below 100 nM; against PIK3CA (human) [4], above 10000 nM; on PIK3CG (human), below 100 nM.
For `COc1ncc(-c2cccc3cc([C@H](C)Nc4nc(N)ncc4C#N)n(-c4ccccc4)c(=O)c23)cn1`, the IC50 is below 100 nM against PIK3CD (Human) [1]; above 10000 nM against PIK3CB (Human) [2]; below 100 nM against PIK3CD (Human) [3]; above 10000 nM on PIK3CB (Human) [5]; below 100 nM on PIK3CG (human).
With `CC(C)n1c([C@H](C)Nc2ncnc(N)c2C#N)cc2cccc(-c3ccc(=O)n(C)c3)c2c1=O`, the IC50 was below 100 nM at PIK3CD (Human) [1], below 100 nM on PIK3CD (Human) [3], 100 to 1000 nM on PIK3CB (Human) [5] and 100 to 1000 nM on PIK3CG (human).
With `Cc1ncc(-c2cccc3cc([C@H](C)Nc4nc(N)ncc4C#N)n(C(C)C)c(=O)c23)cn1`, the IC50 against PIK3CD (Human) [1] was below 100 nM; against PIK3CA (human) [6], 100 to 1000 nM; on PIK3CB (Human) [2], above 10000 nM; on PIK3CD (Human) [3] it was below 100 nM; against PIK3CA (human) [4], above 10000 nM.
For the molecule `COc1nc(-c2cnc(N)nc2N[C@@H](C)c2cc3cccc(-c4ccc(=O)n(C)c4)c3c(=O)n2-c2ccccc2)cs1`, the IC50 on PIK3CD (Human) [1] is below 100 nM; on PIK3CA (human) [6], above 10000 nM; against PIK3CB (Human) [2], above 10000 nM; on PIK3CD (Human) [3], below 100 nM; against PIK3CB (Human) [5], above 10000 nM; against PIK3CA (human) [4], above 10000 nM. The same molecule gave an IC50 on PIK3CG (human) below 100 nM.
With `C[C@H](Nc1nc(N)ncc1-c1cncs1)c1cc2cccc(-c3ccc(=O)n(C)c3)c2c(=O)n1-c1ccccc1`, the IC50 at PIK3CD (Human) [1] was below 100 nM; against PIK3CB (Human) [2] it was above 10000 nM; against PIK3CD (Human) [3] it was below 100 nM; at PIK3CA (human) [4], above 10000 nM; against PIK3CG (human), below 100 nM.
With `Cc1ncc(-c2cccc3cc([C@H](C)Nc4ncnc(N)c4C#N)n(-c4ccon4)c(=O)c23)cn1`, the IC50 at PIK3CD (Human) [1] was below 100 nM; against PIK3CB (Human) [2], above 10000 nM; against PIK3CD (Human) [3], 100 to 1000 nM; against PIK3CA (human) [4] it was above 10000 nM; against PIK3CG (human), above 10000 nM.
Consider `C[C@H](Nc1nc(N)ncc1-c1ccoc1)c1cc2cccc(Cl)c2c(=O)n1-c1ccccc1`, for which the IC50 was below 100 nM at PIK3CD (Human) [1]; above 10000 nM against PIK3CB (Human) [2]; 100 to 1000 nM on PIK3CD (Human) [3]; above 10000 nM on PIK3CA (human) [4]; below 100 nM against PIK3CG (human).
`C[C@H](Nc1nc(N)ncc1-c1cccc(S(=O)(=O)N(C)C)c1)c1cc2cccc(Cl)c2c(=O)n1-c1ccccc1`: the IC50 on PIK3CD (Human) [1] was below 100 nM; at PIK3CB (Human) [2] it was 100 to 1000 nM; against PIK3CD (Human) [3] it was below 100 nM; against PIK3CA (human) [4], 100 to 1000 nM; on PIK3CG (human), below 100 nM.
With `C[C@H](Nc1nc(N)ncc1C#N)c1cc2cccc(Cl)c2c(=O)n1-c1cc(F)cc(F)c1`, the IC50 against PIK3CD (Human) [1] is below 100 nM; against PIK3CB (Human) [2], above 10000 nM; at PIK3CD (Human) [3], 100 to 1000 nM; at PIK3CA (human) [4], above 10000 nM; at PIK3CG (human), below 100 nM.
For `C[C@H](Nc1nc(N)ncc1-c1cccc(S(=O)(=O)N2CCCC2)c1)c1cc2cccc(Cl)c2c(=O)n1-c1ccccc1`, the IC50 at PIK3CD (Human) [1] is below 100 nM; at PIK3CB (Human) [2] it was 100 to 1000 nM; at PIK3CD (Human) [3], below 100 nM; against PIK3CA (human) [4], above 10000 nM; against PIK3CG (human) it was below 100 nM.
On to `CCOc1nc(-c2cnc(N)nc2N[C@@H](C)c2cc3cccc(-c4ccc(=O)n(C)c4)c3c(=O)n2-c2ccccc2)cs1`, for which the IC50 on PIK3CD (Human) [1] is below 100 nM; on PIK3CA (human) [6] it was 100 to 1000 nM; against PIK3CD (Human) [3], below 100 nM; against PIK3CG (human), below 100 nM.
As for `C=CS(=O)(=O)Nc1cccc(-c2cnc(N)nc2N[C@@H](C)c2cc3cccc(Cl)c3c(=O)n2-c2ccccc2)c1`, the IC50 on PIK3CD (Human) [1] was below 100 nM; against PIK3CB (Human) [2] it was 100 to 1000 nM; at PIK3CD (Human) [3], below 100 nM; against PIK3CA (human) [4], 100 to 1000 nM; at PIK3CG (human) it was below 100 nM.
As to `C[C@H](Nc1nc(N)ncc1-c1cscn1)c1cc2cccc(-c3ccc(=O)n(C)c3)c2c(=O)n1-c1ccccc1`, the IC50 against PIK3CD (Human) [1] is below 100 nM; on PIK3CB (Human) [2] it was above 10000 nM; against PIK3CD (Human) [3], below 100 nM; on PIK3CA (human) [4], above 10000 nM; against PIK3CG (human), below 100 nM.
In the case of `C[C@H](Nc1nc(N)ncc1C#N)c1cc2cccc(Cl)c2c(C(=O)NC2CCOCC2)n1`, the IC50 against PIK3CD (Human) [1] is below 100 nM; on PIK3CA (human) [6], above 10000 nM; on PIK3CB (Human) [2], above 10000 nM; on PIK3CA (human) [4], above 10000 nM; at PIK3CG (human), above 10000 nM.
Turning to `CC(C)n1c([C@H](C)Nc2nc(N)ncc2C#N)cc2cccc(-c3ccc(=O)n(C)c3)c2c1=O`, the IC50 was below 100 nM against PIK3CD (Human) [1], below 100 nM on PIK3CD (Human) [3], 100 to 1000 nM against PIK3CB (Human) [5] and 100 to 1000 nM at PIK3CG (human).
